From patent US20230248741A1, “Compositions and Methods for Lowering Triglycerides in a Subject with Reduced Kidney Function and Diabetes Mellitus” (Amarin Pharmaceuticals Ireland Limited, priority 2018, published 2023)

Tests used:
[1] = test system: patients with fasting TG ≥200 and <500 mg/dl despite statin therapy; experiment: ANCHOR study, entire population: fasting TG; format: in vivo, human; conditions: 4 g/day
Protocol: A multi-center, placebo-controlled, randomized, double-blind, 12-week study is performed to evaluate the efficacy and safety of >96% E-EPA in patients with fasting triglyceride levels ≥200 mg/dl and <500 mg/dl despite statin therapy (the mean of two qualifying entry values needs to be ≥185 mg/dl and at least one of the values needs to be ≥200 mg/dl). The primary objective of the study is to determine the efficacy of >96% E-EPA 2 g daily and 4 g daily, compared to placebo, in lowering fasting TG levels in patients with high risk for cardiovascular disease and with fasting TG levels ≥200 mg/dL and <500 mg/dL, despite treatment to LDL-C goal on statin therapy.
The primary efficacy variable for the double-blind treatment period is percent change in TG from baseline to Week 12 endpoint. […]

[2] = test system: patients with chronic kidney disease (eGFR <60 mL/min/1.73 m^2 for ≥3 months); experiment: ANCHOR post-hoc: lipid and lipoprotein parameters, oxidation and inflammation markers; format: in vivo, human
Protocol: CVD-related (e.g., atherogenic) parameters were analyzed in a post-hoc study of 55 patients from the multi-center, placebo-controlled, randomized double-blind, 12-week study described in Example 1. These 55 patients have chronic kidney disease (e.g., eGFR<60 mL/min/1.73 m^2 for ≥3 months). There was no lower limit of eGFR specified.
Subjects: 19 patients were randomized to E-EPA and 36 patients were randomized to placebo. One patient in each group discontinued and was excluded from efficacy analyses (but not safety analyses). EPA levels in plasma and RBC were measured in 23 of the 55 patients. These measurements were taken on 7 of the patients randomized to E-EPA and on 16 of the patients that were randomized to the placebo.
The primary objective of this post-hoc study, which is based on an intention to treat, was to determine if and how 4 g daily of >96% E-EPA affects patients with stage 3 chronic kidney disease (e.g., eGFR<60 mL/min/1.73 m^2 for ≥3 months). The secondary objective was to determine if and how 4 g daily of >96% E-EPA, compared to a placebo, affected CVD-related parameters in patients with a high risk of CVD and fasting TG levels ≥[…] and <500 mg/dL, despite LDL-C goal on statin therapy. These CVD-parameters include lipid levels, lipoprotein levels, and inflammatory markers, such as TC, LDL-C, HDL-C, VLDL-C, VLDL-TG, RLP-C, non-HDL-C, Apo B, Apo C-III, Lp-PLA, hsCRP, and ox-LDL, and in plasma and RBC EPA concentration. CVD-parameters were analyzed for median difference in percent change from baseline to week 12 in subjects receiving 4 g/day of E-EPA and those receiving the placebo.
Analysis: The median difference in percent change from baseline between 4 g/day of E-EPA and placebo for the primary efficacy variable and additional assessments were estimated using the Hodges-Lehmann method (P values from the Wilcoxon rank-sum test for treatment comparisons). Using the Hodges-Lehmann method, departures from normal distribution were observed; for normally distributed parameters, an analysis of covariance model was used with least squares (LS) means and standard errors (SE). Missing values were imputed using the last-observation-carried-forward method. For all post hoc analyses, the alpha for statistical significance was 0.05.

[3] = 4 g/day group (n = 17), before treatment
[4] = 4 g/day group, before treatment
[5] = 4 g/day, week 12, Hodges-Lehmann

`CC/C=C\C/C=C\C/C=C\C/C=C\C/C=C\CCCC(=O)OCC` [E-EPA, ethyl eicosapentaenoate] was tested, and the “median TGs reduction from baseline” value [1] was −21.5%, the “Ox-LDL Baseline, median” value ([2]; 4 g/day group (n = 8), before treatment) was 48.6 u/L and the “RLP-C Baseline, median” value ([2]; 4 g/day group (n = 9), before treatment) was 17.0 mg/dL. The “Apo C-III Baseline, median” value ([2]; 4 g/day group (n = 13), before treatment) was 15.6 mg/dL, the “Apo B Baseline, median” value [2, 3] was 87.0 mg/dL and the “Lp-PLA2 Baseline, median” value [2, 3] was 173.0 ng/mL. For the same compound, the “hsCRP Baseline, median” value [2, 3] was 1.9 mg/L, the “TGs Baseline, median” value ([2]; 4 g/day group (n = 18), before treatment) was 268.5 mg/dL and the “HDL-C Baseline, median” value [2, 4] was 35.0 mg/dL. The “LDL-C Baseline, median” value [2, 4] was 76.0 mg/dL, the “Non-HDL-C Baseline, median” value [2, 4] was 124.5 mg/dL and the “TC Baseline, median” value [2, 4] was 159.5 mg/dL. For the same compound, the “VLDL-C Baseline, median” value [2, 4] was 42.0 mg/dL, the “VLDL-TGs Baseline, median” value [2, 4] was 194.0 mg/dL and the “reduction of TG compared to placebo” value ([2]; 4 g/day, 12 weeks, P=0.007) was “at least 16.9%”. For the same compound, the “median TGs reduction from baseline” value ([2]; 4 g/day, CKD cohort) was −16.9%, the “Apo B Change From Baseline, %, median” value ([2]; 4 g/day, week 12) was −7.2% and the “Apo B End of Treatment, median” value ([2]; 4 g/day, week 12) was 83.0 mg/dL. The “Apo C-III Change From Baseline, %, median” value ([2]; 4 g/day, week 12) was −7.3%, the “Apo C-III End of Treatment, median” value ([2]; 4 g/day, week 12) was 13.9 mg/dL and the “HDL-C Change From Baseline, %, median” value ([2]; 4 g/day, week 12) was 0.9%. For the same compound, the “HDL-C End of Treatment, median” value ([2]; 4 g/day, week 12) was 35.5 mg/dL, the “LDL-C Change From Baseline, %, median” value ([2]; 4 g/day, week 12) was −6.5% and the “LDL-C End of Treatment, median” value ([2]; 4 g/day, week 12) was 70.5 mg/dL. For the same compound, the “Lp-PLA2 Change From Baseline, %, median” value ([2]; 4 g/day, week 12) was −12.7%, the “Lp-PLA2 End of Treatment, median” value ([2]; 4 g/day, week 12) was 150.0 ng/mL and the “Non-HDL-C Change From Baseline, %, median” value ([2]; 4 g/day, week 12) was −8.4%. For the same compound, the “Non-HDL-C End of Treatment, median” value ([2]; 4 g/day, week 12) was 116.0 mg/dL, the “Ox-LDL Change From Baseline, %, median” value ([2]; 4 g/day, week 12) was −9.5% and the “Ox-LDL End of Treatment, median” value ([2]; 4 g/day, week 12) was 45.1 u/L. For the same compound, the “TC Change From Baseline, %, median” value ([2]; 4 g/day, week 12) was −8.1%, the “TC End of Treatment, median” value ([2]; 4 g/day, week 12) was 151.5 mg/dL and the “TGs Change From Baseline, %, median” value ([2]; 4 g/day, week 12) was −17.1%. The “TGs End of Treatment, median” value ([2]; 4 g/day, week 12) was 230.5 mg/dL, the “VLDL-C Change From Baseline, %, median” value ([2]; 4 g/day, week 12) was −16.3% and the “VLDL-C End of Treatment, median” value ([2]; 4 g/day, week 12) was 36.5 mg/dL. For the same compound, the “VLDL-TGs Change From Baseline, %, median” value ([2]; 4 g/day, week 12) was −25.8%, the “VLDL-TGs End of Treatment, median” value ([2]; 4 g/day, week 12) was 168.5 mg/dL and the “hsCRP Change From Baseline, %, median” value ([2]; 4 g/day, week 12) was −16.9%. For the same compound, the “hsCRP End of Treatment, median” value ([2]; 4 g/day, week 12) was 2.1 mg/L, the “Apo B Median Difference in % Change From Baseline vs. Placebo” value [2, 5] was −18.7, 0.0002% and the “Apo C-III Median Difference in % Change From Baseline vs. Placebo” value [2, 5] was −15.0, 0.0168%. For the same compound, the “HDL-C Median Difference in % Change From Baseline vs. Placebo” value [2, 5] was −8.3, 0.0362%, the “LDL-C Median Difference in % Change From Baseline vs. Placebo” value [2, 5] was −20.8, 0.0086% and the “Lp-PLA2 Median Difference in % Change From Baseline vs. Placebo” value [2, 5] was −17.5, 0.0068%. The “Non-HDL-C Median Difference in % Change From Baseline vs. Placebo” value [2, 5] was −21.5, <0.0001%, the “Ox-LDL Median Difference in % Change From Baseline vs. Placebo” value [2, 5] was −25.7, 0.0068% and the “RLP-C Median Difference in % Change From Baseline vs. Placebo” value [2, 5] was −38.8, 0.0295%. The “TC Median Difference in % Change From Baseline vs. Placebo” value [2, 5] was −18.2, <0.0001%, the “TGs Median Difference in % Change From Baseline, Icosapent Ethyl 4 g/day vs. Placebo” value [2, 5] was −16.9, 0.0074% and the “VLDL-C Median Difference in % Change From Baseline vs. Placebo” value [2, 5] was −28.7, 0.0026%. For the same compound, the “VLDL-TGs Median Difference in % Change From Baseline vs. Placebo” value [2, 5] was −25.6, 0.0020%, the “hsCRP Median Difference in % Change From Baseline vs. Placebo” value ([2]; 4 g/day, week 12, Hodges-Lehmann, P 0.1209) was −25.0, 0.1209% and the “RLP-C Change From Baseline, %, median” value ([2]; 4 g/day, week 12, n = 9) was −38.9%. For the same compound, the “RLP-C End of Treatment, median” value ([2]; 4 g/day, week 12, n = 9) was 10.0 mg/dL.
